Data as given in publication PMC8752738, “A propolis-derived small molecule ameliorates metabolic syndrome in obese mice by targeting the CREB/CRTC2 transcriptional complex” (Nature Communications, 2022).
Values joined by “and” are separate entries in the source; they are usually repeats but may differ in a detail not shown here. Identical values can stand only once. “Also recorded” adds a separate entry of the source.

Legend:
[1] = biological target: T1, CREB-CRTC2 interaction (Homo sapiens, UniProt P16220); assay: CREB–CRTC2 mammalian two-hybrid assay (GAL4-Luc reporter); format: cell-based; design: CREB/CRTC2 -luc activity %: concentration or dose not given beside the values; settings: for relative Gal4-luc activity %: Fig 3b replicates
T1 construct: expressed in transfected cells; host or cells: HEK293T
T1 sequence (P16220 whole entry, the tested form may be a part): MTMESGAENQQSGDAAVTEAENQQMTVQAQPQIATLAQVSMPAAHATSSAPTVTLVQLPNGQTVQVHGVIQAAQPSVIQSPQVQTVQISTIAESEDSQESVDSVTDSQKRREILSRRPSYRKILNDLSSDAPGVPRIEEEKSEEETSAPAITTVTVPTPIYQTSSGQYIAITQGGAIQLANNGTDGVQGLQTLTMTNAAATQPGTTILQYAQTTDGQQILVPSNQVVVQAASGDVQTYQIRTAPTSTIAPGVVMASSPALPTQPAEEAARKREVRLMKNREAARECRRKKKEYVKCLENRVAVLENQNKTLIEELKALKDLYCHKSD

[2] = biological target: T2, HIS-CREB protein (Homo sapiens, UniProt P16220); assay: Surface plasmon resonance, immobilized HIS-CREB; format: binding; settings: dose-dependent
T2 construct: made in house
T2 sequence (P16220 whole entry): as the sequence (P16220 whole entry, the tested form may be a part) above
Description: BIACORE 100 (GE Healthcare) was employed to perform surface plasmon resonance. Briefly, purified HIS-CREB proteins were captured in the test channel of an NTA-chip (GE, Healthcare) in HEPES buffer (10 mM HEPES, 150 mM NaCl, 3 mM EDTA, pH 7.5). APC solutions with different concentrations were flowed through immobilized HIS-CREB proteins for indicated times, which caused equilibrium response values (RU) to change appropriately. The detected RU values were plotted by time using GraphPad Prism software.

[3] = test system: mTORC1; assay: Immunoblotting of mTORC1 signaling, mature SREBP1 and FASN in primary hepatocytes; format: cell-based, mouse; settings: glucagon-insulin-treated primary hepatocytes
Description: Fi g u re B . Immunoblotting analysis of phosphorated or total protein amounts of S6K , mature SREBP -1and FASN in primary hepatocyt es . The cells wer epretreated with APC (10 μ M) for 2 hours , exposed to glucagon (100 nM) for 4 hours, and t hen followed by12- hour insulin (100 nM) incubationbefore collection.
(1 picture or pasted object on this page, not shown here) […]
I have a few more points that have to be addressed in the revised work.
1. In Figure B, it appeared that APC-induced p-S6K level was rather inhibited by glu/ins treatment (lane 3 vs lane 4). Is it significant?
Response: We agree wit h Reviewer1’ s comments that the western blotting band of p-S6K level of lane 4 seems weaker than that of lane3 in Figure B. However, we performed the densitometry analysis of all the results from three independent […]
independent of its effect on reducing SREBP-1c expression and the subsequent repression of lipogenesis. The authors should simply run western blot for mTORC1 signaling by utilizing the existing samples.
Response: We are grat eful for Reviewer1’s com ments. […]
to glucagon (100 nM) for 4 hours, and then followed by 12- hour insulin (100 nM) incubation before collection. […] Data are represented as mean ± SEM. *, p < 0.05; **, p < 0.01; p values were determined by two- way ANOVA followed Bonferroni’s multiple comparisons test. […]

## CC(C)=CCc1cc(C=CC(=O)O)cc(CC=C(C)C)c1O [APC, 3,5-diprenyl-4-hydroxycinnamic acid]
[1]; 16 h, Figure 9b, Log10(M) -3, single replicates, read-out: Gal4-LUC reporter activiry, %
  remaining activity at 1000 µM: 0.439%
[1]; 16 h, Figure 9b, Log10(M) -4, single replicates, read-out: Gal4-LUC reporter activiry, %
  remaining activity at 100 µM: 0.257%
[1]; 16 h, Figure 9b, Log10(M) -6, single replicates, read-out: Gal4-LUC reporter activiry, %
  remaining activity at 1 µM: 36.2%
[1]; 16 h, Figure 9b, Log10(M) -7, single replicates, read-out: Gal4-LUC reporter activiry, %
  remaining activity at 0.1 µM: 71.6%
[1]; 16 h, Figure 9b, Log10(M) -8, single replicates, read-out: Gal4-LUC reporter activiry, %
  remaining activity at 0.01 µM: 92.8%
[1]; 16 h, Figure 9b, Log10(M) -9, single replicates, read-out: Gal4-LUC reporter activiry, %
  remaining activity at 0.001 µM: 74.9%
[1]; 16 h, Figure 9b, Log10(M) -10, single replicates, read-out: Gal4-LUC reporter activiry, %
  remaining activity at 0.0001 µM: 102%
[1]; APC Log10(M) -3
  relative Gal4-luc activity %: 0.3266% and 0.2637% and 0.3128%
[1]; APC Log10(M) -4
  relative Gal4-luc activity %: 10.2018% and 10.3248% and 10.277%
[1]; APC Log10(M) -5
  relative Gal4-luc activity %: 61.3194% and 69.9978% and 76.9726%
[1]; APC Log10(M) -6
  relative Gal4-luc activity %: 65.67% and 82.3932% and 92.7658%
[1]; APC Log10(M) -7
  relative Gal4-luc activity %: 64.5839% and 85.9224% and 107.618%
[1]; APC Log10(M) -8
  relative Gal4-luc activity %: 99.4977% and 99.5841% and 100.918%
[1]; APC Log10(M) -9
  relative Gal4-luc activity %: 107.021% and 111.522% and 103.779%
[1]; Figure 1f, CREB-CRTC2 two-hybrid assay, DMSO control about 100, listed as P3
  Relative Gal4-LUC activity, single replicates: 21.4874 and 38.8421 and 27.0437
[1]; HEK293T, isolated compound 25 μM, listed as P3
  reporter activity of CREB–CRTC2 two-hybrid assay: significantly inhibited; also recorded: most potent
[1]; Supp. Fig.10 a, individual replicates, Ctrl about 97
  Related Gal4-luc %: 42.290% and 38.150% and 46.110% and 51.003%
[1]; Supp. Fig.10 a, mean of n=4, CTRL mean 96.58
  Related Gal4-luc %, group mean (Test details, Mean 2): 44.39%
[1]; Supp. Fig.10 b, individual replicates, Ctrl about 100
  CREB/CRTC2 -luc activity %: 51.481% and 56.411% and 65.126%
[1]; cell-based two-hybrid assay, HEK293T cells, read-out: IC50 for disrupting CREB–CRTC2 interaction
  IC50: ~24.5 µM and 24.5 µM
[2]
  binding to immobilized HIS-CREB (SPR): directly bound
[3]
  mTORC1 activity: increased
  protein amounts of mature SREBP1 and fat acid synthase: decreased
